This is an account of results in ChEMBL document CHEMBL1143001, “Designing active template molecules by combining computational de novo design and human chemist's expertise” (J Med Chem, 2007).

Data set [1] concerns the target Phosphodiesterase 3 (Homo sapiens) (UniProt Q14432+Q13370). Description: Inhibition of PDE3 expressed in human platelets at 10 uM.
Data set [2] concerns the target cGMP-specific 3',5'-cyclic phosphodiesterase (Homo sapiens) (UniProt O76074). Put plainly: Inhibition of PDE5 in human platelet cells at 10 uM. Type of data set: cell-based.
The species entered for data set [3] is Rattus norvegicus. Description: Inhibition of rat brain adenylyl cyclase at 10 uM.
The species named for data set [4] is Bos taurus. Put plainly: Inhibition of bovine lung guanylyl cyclase at 10 uM.
Data set [5] is filed under the species Sus scrofa. Description: Inhibition of pig liver catechol-O-methyl transferase at 10 uM.
The target in data set [6] is 4-aminobutyrate aminotransferase, mitochondrial (Rattus norvegicus) (UniProt P50554). Description: Inhibition of rat brain GABA transaminase at 10 uM.
The target in data set [7] is T1, Amine oxidase [flavin-containing] B (Homo sapiens, UniProt P27338).
T1 sequence (P27338 whole entry): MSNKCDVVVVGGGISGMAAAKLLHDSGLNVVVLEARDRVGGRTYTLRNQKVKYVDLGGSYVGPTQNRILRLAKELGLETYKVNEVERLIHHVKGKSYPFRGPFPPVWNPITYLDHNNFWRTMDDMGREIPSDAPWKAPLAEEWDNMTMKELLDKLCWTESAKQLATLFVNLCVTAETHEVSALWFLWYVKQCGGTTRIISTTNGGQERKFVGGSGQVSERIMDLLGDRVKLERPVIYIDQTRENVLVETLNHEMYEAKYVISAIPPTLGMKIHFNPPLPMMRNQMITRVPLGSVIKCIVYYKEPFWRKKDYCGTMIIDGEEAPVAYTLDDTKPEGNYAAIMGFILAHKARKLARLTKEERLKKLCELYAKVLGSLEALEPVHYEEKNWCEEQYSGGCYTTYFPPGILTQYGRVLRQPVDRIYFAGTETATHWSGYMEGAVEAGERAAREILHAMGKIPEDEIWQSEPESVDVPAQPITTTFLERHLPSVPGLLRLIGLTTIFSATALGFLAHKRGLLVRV
Description: Inhibition of MAOB in human platelets at 10 uM.

Data set [8] deals with T2, Phenylethanolamine N-methyltransferase (Bos taurus) (UniProt P10938).
T2 sequence (whole entry): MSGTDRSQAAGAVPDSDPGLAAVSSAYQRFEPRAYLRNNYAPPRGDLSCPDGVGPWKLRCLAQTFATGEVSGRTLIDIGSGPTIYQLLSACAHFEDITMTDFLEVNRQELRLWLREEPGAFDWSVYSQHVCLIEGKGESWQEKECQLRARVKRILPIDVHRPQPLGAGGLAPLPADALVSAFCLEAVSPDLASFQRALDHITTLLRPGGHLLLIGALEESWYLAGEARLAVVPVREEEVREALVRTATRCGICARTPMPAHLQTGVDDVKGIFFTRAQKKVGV
Put plainly: Inhibition of bovine adrenal medulla phenylethanolamine-N-methyl transferase at 10 uM. Type of data set: tissue-based.

The species named for data set [9] is Rattus norvegicus. Description: Inhibition of rat striatum tyrosine hydroxylase at 10 uM. Type of data set: tissue-based.
The species entered for data set [10] is Canis lupus familiaris. Description: Inhibition of dog kidney (Na+/K+) ATPase at 10 uM.
For data set [11], the species on record is Bos taurus. Put plainly: Inhibition of bovine PDE1 at 10 uM.
The target in data set [12] is cGMP-dependent 3',5'-cyclic phosphodiesterase (Homo sapiens) (UniProt O00408). Put plainly: Inhibition of PDE2 expressed in differentiated U937 cells at 10 uM. The conditions noted are these: U-937. In kind it is cell-based.
For data set [13], the target named is Phosphodiesterase 4 (Homo sapiens) (UniProt P27815+Q08499+Q07343+Q08493). Description: Inhibition of PDE4 expressed in U937 cells at 10 uM. Type of data set: cell-based. The conditions noted are these: U-937.
Data set [14] concerns the target Acetylcholinesterase (Homo sapiens) (UniProt P22303). Description: Inhibition of human recombinant AChE expressed in HEK293 cells at 10 uM. In kind it is cell-based.
In data set [15] the test system is Protein kinase C (Rattus norvegicus). Put plainly: Inhibition of rat brain PKC at 10 uM.
Data set [16] has as its target Muscarinic acetylcholine receptor M5 (Rattus norvegicus) (UniProt P08911). Put plainly: Displacement of radiolabeled atropine from rat brain muscarinic M5 receptor at 10 uM.
Data set [17] concerns the target Muscarinic acetylcholine receptor M2 (Rattus norvegicus) (UniProt P10980). Description: Displacement of radiolabeled atropine from rat brain muscarinic M2 receptor at 10 uM.
The target of data set [18] is Muscarinic acetylcholine receptor M1 (Rattus norvegicus) (UniProt P08482). Description: Displacement of radiolabeled atropine from rat brain muscarinic M1 receptor at 10 uM.
Data set [19] concerns the target Muscarinic acetylcholine receptor M3 (Rattus norvegicus) (UniProt P08483). Description: Displacement of radiolabeled atropine from rat brain muscarinic M3 receptor at 10 uM.
Data set [20] has as its target Muscarinic acetylcholine receptor M4 (Rattus norvegicus) (UniProt P08485). Description: Displacement of radiolabeled atropine from rat brain muscarinic M4 receptor at 10 uM.
Data set [21] addresses Sodium-dependent noradrenaline transporter (Homo sapiens) (UniProt P23975). Description: Displacement of radiolabeled protriptyline from human recombinant NET expressed in CHO cells at 10 uM. In kind it is cell-based.
The species entered for data set [22] is Homo sapiens. Description: Displacement of radiolabeled ligand from nicotinic acetylcholine receptor at 10 uM.
The target of data set [23] is Adrenergic receptor alpha-1 (Rattus norvegicus) (UniProt P15823+P23944+P43140). Put plainly: Displacement of radiolabeled prazosin from adrenergic alpha1 receptor in rat cerebral cortex. Type of data set: tissue-based. The conditions noted are these: concentration not given here.
Data set [24] deals with Adrenergic receptor alpha-2 (Rattus norvegicus) (UniProt P22086+P19328+P22909). Put plainly: Displacement of radiolabeled yohimbine from adrenergic alpha-2 receptor in rat cerebral cortex. In kind it is tissue-based. To be noted: concentration not given here.
Data set [25] is filed under the species Rattus norvegicus. Description: Displacement of radiolabeled naloxone from opiate receptor in rat cerebral cortex. The conditions noted are these: concentration not given here. Type of data set: tissue-based.
Data set [26] deals with Serotonin (5-HT) receptor (Rattus norvegicus) (UniProt P35563+P35365+P32305+P31388+Q9JJ16+P28564+P30994+Q62758+P08909+P14842+P30940+P35364+P19327+P28565). Description: Displacement of radiolabeled serotonin from 5-HT receptor in rat cerebral cortex. In kind it is tissue-based. The conditions noted are these: concentration not given here.

Active and inactive are the calls of the source. The rule behind the calls is not given here.

Sequence of cGMP-dependent 3',5'-cyclic phosphodiesterase (Homo sapiens) (O00408 whole entry): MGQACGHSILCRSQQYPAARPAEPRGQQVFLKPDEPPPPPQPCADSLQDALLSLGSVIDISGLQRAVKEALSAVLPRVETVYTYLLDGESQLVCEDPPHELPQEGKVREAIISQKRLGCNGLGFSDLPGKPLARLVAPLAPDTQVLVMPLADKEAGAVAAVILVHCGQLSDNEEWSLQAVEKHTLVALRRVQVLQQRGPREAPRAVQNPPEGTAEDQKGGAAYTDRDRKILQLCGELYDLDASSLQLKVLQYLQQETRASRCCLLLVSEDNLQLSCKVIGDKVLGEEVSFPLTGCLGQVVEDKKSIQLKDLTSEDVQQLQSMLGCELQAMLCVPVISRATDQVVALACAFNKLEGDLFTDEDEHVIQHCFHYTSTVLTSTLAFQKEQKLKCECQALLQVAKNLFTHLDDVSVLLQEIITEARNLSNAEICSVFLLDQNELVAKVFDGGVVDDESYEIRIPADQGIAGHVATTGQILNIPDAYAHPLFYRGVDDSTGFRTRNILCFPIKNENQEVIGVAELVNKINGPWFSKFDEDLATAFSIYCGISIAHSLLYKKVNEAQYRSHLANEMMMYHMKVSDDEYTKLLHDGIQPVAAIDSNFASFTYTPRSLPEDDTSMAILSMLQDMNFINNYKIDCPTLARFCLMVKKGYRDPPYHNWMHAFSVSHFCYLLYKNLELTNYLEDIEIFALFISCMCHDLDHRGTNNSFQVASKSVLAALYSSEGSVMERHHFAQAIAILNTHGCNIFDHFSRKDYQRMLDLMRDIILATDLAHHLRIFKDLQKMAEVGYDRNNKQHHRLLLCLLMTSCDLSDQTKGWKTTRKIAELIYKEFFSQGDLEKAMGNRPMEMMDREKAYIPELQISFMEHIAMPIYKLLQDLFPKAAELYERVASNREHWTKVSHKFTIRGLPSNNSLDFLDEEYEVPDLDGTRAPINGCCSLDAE
Sequence of Acetylcholinesterase (Homo sapiens) (P22303 whole entry): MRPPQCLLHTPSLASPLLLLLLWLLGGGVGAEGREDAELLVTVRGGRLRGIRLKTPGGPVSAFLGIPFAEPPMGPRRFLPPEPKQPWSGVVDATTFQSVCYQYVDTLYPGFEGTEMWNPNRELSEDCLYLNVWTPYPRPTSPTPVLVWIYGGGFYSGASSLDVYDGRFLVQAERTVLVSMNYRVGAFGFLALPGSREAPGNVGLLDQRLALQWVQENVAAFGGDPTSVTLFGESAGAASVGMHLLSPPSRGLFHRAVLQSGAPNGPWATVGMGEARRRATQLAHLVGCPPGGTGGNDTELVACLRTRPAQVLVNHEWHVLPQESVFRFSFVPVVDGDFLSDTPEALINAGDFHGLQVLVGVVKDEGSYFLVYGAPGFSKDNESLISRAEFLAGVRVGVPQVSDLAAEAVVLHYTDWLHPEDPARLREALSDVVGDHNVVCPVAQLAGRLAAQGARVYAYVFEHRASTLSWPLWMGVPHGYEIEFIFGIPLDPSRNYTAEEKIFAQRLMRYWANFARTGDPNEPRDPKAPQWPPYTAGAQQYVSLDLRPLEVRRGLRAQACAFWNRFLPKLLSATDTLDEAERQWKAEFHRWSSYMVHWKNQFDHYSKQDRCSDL
Sequence of 4-aminobutyrate aminotransferase, mitochondrial (Rattus norvegicus) (P50554 28-500 limits assumed): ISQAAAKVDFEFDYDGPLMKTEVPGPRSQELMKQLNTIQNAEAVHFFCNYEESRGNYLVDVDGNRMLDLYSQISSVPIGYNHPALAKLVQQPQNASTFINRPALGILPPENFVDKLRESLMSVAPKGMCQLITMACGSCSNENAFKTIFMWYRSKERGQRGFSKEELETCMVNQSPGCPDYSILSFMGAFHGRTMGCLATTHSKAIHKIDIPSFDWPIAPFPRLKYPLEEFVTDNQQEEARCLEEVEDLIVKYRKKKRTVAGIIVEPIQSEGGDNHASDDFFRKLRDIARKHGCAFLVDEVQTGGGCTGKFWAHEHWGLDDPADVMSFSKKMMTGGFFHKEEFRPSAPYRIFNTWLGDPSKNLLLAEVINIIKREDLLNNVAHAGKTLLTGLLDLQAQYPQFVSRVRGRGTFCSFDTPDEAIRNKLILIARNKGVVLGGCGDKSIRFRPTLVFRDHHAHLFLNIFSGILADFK
Sequence of Sodium-dependent noradrenaline transporter (Homo sapiens) (P23975 whole entry): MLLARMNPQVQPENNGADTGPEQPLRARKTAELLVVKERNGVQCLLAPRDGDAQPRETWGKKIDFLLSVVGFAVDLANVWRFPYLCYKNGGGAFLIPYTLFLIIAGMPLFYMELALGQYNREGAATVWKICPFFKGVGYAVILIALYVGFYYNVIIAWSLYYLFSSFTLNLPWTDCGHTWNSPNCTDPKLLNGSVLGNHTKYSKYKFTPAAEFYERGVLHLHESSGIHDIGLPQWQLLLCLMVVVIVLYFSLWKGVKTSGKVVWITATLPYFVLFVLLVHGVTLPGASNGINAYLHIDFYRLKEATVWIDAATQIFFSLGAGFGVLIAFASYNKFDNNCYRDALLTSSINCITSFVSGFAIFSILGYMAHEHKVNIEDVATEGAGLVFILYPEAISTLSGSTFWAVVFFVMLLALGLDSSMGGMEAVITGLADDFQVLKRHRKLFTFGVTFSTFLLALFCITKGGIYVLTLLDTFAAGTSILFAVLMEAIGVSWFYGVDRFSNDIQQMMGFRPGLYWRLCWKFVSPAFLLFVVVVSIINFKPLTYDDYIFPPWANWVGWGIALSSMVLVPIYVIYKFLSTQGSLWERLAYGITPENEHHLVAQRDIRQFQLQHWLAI
Sequence of Muscarinic acetylcholine receptor M2 (Rattus norvegicus) (P10980 whole entry): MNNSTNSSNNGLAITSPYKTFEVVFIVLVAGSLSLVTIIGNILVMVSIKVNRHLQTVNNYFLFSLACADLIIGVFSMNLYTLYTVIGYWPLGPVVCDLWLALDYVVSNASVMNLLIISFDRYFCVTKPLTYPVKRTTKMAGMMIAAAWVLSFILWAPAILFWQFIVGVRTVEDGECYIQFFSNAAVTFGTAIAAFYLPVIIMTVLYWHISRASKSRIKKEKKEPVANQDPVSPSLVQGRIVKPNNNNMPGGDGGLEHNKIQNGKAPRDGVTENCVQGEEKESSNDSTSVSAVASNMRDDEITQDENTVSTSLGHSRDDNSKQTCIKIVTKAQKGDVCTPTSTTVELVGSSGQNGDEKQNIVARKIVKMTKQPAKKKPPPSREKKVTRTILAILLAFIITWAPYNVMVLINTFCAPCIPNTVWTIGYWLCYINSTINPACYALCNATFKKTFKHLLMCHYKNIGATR
Sequence of Muscarinic acetylcholine receptor M5 (Rattus norvegicus) (P08911 whole entry): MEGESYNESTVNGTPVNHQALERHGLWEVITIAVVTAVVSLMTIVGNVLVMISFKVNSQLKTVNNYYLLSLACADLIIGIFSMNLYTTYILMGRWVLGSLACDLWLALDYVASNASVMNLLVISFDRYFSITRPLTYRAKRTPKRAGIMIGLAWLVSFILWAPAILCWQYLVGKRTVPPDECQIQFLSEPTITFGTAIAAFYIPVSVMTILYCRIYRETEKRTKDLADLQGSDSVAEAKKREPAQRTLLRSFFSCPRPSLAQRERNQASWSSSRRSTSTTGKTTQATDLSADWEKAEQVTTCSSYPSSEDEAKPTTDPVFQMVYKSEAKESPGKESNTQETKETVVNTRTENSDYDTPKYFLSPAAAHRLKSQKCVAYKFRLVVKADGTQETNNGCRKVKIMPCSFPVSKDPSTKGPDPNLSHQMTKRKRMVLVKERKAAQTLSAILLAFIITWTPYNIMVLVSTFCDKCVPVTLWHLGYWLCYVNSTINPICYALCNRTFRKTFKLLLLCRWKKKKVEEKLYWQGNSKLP
Sequence of Muscarinic acetylcholine receptor M3 (Rattus norvegicus) (P08483 whole entry, looked up): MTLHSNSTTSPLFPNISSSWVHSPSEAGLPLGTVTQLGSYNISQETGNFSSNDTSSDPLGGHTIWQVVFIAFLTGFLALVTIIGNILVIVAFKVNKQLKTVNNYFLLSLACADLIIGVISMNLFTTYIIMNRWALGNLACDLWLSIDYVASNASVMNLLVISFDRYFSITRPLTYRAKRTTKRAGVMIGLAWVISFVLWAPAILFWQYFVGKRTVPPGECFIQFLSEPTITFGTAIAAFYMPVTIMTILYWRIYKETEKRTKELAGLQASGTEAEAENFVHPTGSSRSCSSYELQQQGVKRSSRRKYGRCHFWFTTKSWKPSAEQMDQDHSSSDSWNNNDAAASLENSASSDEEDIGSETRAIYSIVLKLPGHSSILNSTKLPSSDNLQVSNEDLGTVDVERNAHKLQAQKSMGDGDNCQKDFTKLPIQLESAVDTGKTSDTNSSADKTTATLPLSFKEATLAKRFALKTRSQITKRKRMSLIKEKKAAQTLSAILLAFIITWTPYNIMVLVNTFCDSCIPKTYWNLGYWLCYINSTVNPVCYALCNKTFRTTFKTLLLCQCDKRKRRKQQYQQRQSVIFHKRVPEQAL
Sequence of Muscarinic acetylcholine receptor M4 (Rattus norvegicus) (P08485 whole entry): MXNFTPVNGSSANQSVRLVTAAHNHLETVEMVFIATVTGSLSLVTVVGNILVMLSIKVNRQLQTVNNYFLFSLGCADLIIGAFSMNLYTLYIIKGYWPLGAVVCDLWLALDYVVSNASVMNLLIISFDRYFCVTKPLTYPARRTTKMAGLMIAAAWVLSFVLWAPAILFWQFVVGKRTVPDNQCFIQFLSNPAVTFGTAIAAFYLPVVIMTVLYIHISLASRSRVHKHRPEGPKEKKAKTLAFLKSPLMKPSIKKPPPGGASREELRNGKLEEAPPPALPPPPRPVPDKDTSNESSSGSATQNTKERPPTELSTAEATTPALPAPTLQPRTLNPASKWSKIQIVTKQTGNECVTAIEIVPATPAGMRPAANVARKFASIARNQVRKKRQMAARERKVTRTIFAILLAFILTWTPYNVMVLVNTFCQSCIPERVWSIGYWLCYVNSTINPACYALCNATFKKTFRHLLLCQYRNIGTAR

For the compound `N#Cc1cccc(CN2CCCCC2=O)c1`, the outcome in [1], in data set [2], in data set [3], in data set [4], in data set [5] and in [6] was inactive. In addition, the result in data set [8], in [9], in data set [10], in data set [11], in data set [12] and in data set [13] was inactive. Besides, the result in data set [14] and in [15] was inactive. Moreover, the Activity result in data set [7] is “Not Active”.

Turning to `NCc1cccc(CC2CCCNC2=O)c1` (stereo not drawn), the result in data set [1], in data set [2], in data set [3], in data set [4], in data set [5] and in data set [6] was inactive. For the same compound, the outcome in data set [8], in data set [9], in data set [10], in data set [11], in data set [12] and in data set [13] was inactive. Further, the outcome in data set [14] and in data set [15] was inactive. Besides, in data set [7], the Activity result is given as “Not Active”. Also, the inhibition in [16], in data set [17], in data set [18], in data set [19] and in data set [20] was 50% in each case.

With `Nc1ccc(-c2ccoc2)cc1`, the result in data set [1], in [2], in data set [3], in data set [4], in data set [5] and in data set [6] was inactive. The outcome in data set [8], in [9], in [10], in data set [11], in data set [12] and in [13] was inactive. Also, the outcome in [14] and in [15] was inactive. In addition, in data set [7], the Activity result was “Not Active”. Moreover, in [21], the inhibition was 77%.

`O=C(O)CCC(=O)Nc1ccc(-c2ccoc2)cc1`: the result in data set [1], in data set [2], in [3], in data set [4], in [5] and in data set [6] was inactive. The outcome in [8], in data set [9], in data set [10], in data set [11], in [12] and in data set [13] was inactive. Besides, the result in [14] and in data set [15] was inactive. Besides, the Activity result in data set [7] was “Not Active”.

For the compound `N#Cc1cccc(CC2CCCNC2=O)c1` (stereo not drawn), the result in [1], in [2], in data set [3], in data set [4], in data set [5] and in [6] was inactive. The outcome in data set [8], in data set [9], in data set [10], in [11], in [12] and in [13] was inactive. Further, the result in data set [14] and in data set [15] was inactive. Moreover, the Activity entry in data set [7] is reported as “Not Active”.

For `Nc1cccc(-c2ccoc2)c1`, the outcome in data set [1], in [2], in [3], in data set [4], in data set [5] and in data set [6] was inactive. Also, the outcome in data set [8], in data set [9], in data set [10], in [11], in data set [12] and in data set [13] was inactive. In addition, the outcome in data set [14] and in data set [15] was inactive. Besides, in [7], the Activity entry was “Not Active”. In addition, the figures for the inhibition in [22] and in [21] were 42% and 80%, respectively.

`OCc1ccccc1C1CCCNC1` (stereo not drawn): the outcome in [1], in [2], in [3], in data set [4], in data set [5] and in [6] was inactive. The result in data set [8], in [9], in [10], in data set [11], in data set [12] and in data set [13] was inactive. The result in data set [14] and in [15] was inactive. Moreover, the Activity entry in [7] is “Not Active”. In addition, the inhibition in data set [22] is 45%; in data set [23], 47%; in data set [24], 62%; in data set [25], 35%; in [26], 39%.
